Results published in PubChem BioAssay AID248 (DTP/NCI, 2004).
Where “and” joins values, the source holds several entries; their conditions need not be identical. Equal entries are not always repeated. Inconclusive results and toxic doses are left out. Rule as the data show it: active = T/C of 150% or more; inactive = T/C below 125%.

System: L1210 leukemia ip in BDF1 mice, survival T/C
Assay: NCI In Vivo Anticancer Drug Screen. Data for tumor model L1210 Leukemia (intraperitoneal) in B6D2F1 (BDF1) mice
Conditions: endpoint: mean survival time, higher = longer survival
Method in brief: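 Each compound was tested against a transplantable tumor grown in mice. The endpoint was survival, with treated animals benchmarked against vehicle controls as a simple ratio.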

[1] = dose: 100.0 mg/kg/injection, schedule: Q04DX002 (ip), vehicle: saline with Tween-80
[2] = dose: 200.0 mg/kg/injection, schedule: Q04DX002 (ip), vehicle: saline with Tween-80
[3] = dose: 400.0 mg/kg/injection, schedule: Q04DX002 (ip), vehicle: saline with Tween-80
[4] = dose: 100.0 mg/kg/injection, schedule: Q01DX001 (ip), vehicle: carboxymethylcellulose (CMC)
[5] = dose: 100.0 mg/kg/injection, schedule: Q01DX009 (ip), vehicle: carboxymethylcellulose (CMC)
[6] = dose: 100.0 mg/kg/injection, schedule: Q04DX002 (ip), vehicle: Klucel (hydroxypropylcellulose) (HPC)
[7] = dose: 100.0 mg/kg/injection, schedule: Q04DX003 (ip), vehicle: carboxymethylcellulose (CMC)
[8] = dose: 200.0 mg/kg/injection, schedule: Q01DX001 (ip), vehicle: carboxymethylcellulose (CMC)
[9] = dose: 200.0 mg/kg/injection, schedule: Q01DX009 (ip), vehicle: carboxymethylcellulose (CMC)
[10] = dose: 200.0 mg/kg/injection, schedule: Q04DX002 (ip), vehicle: Klucel (hydroxypropylcellulose) (HPC)
[11] = dose: 200.0 mg/kg/injection, schedule: Q04DX003 (ip), vehicle: carboxymethylcellulose (CMC)
[12] = dose: 400.0 mg/kg/injection, schedule: Q01DX001 (ip), vehicle: carboxymethylcellulose (CMC)
[13] = dose: 400.0 mg/kg/injection, schedule: Q04DX002 (ip), vehicle: Klucel (hydroxypropylcellulose) (HPC)
[14] = dose: 400.0 mg/kg/injection, schedule: Q04DX003 (ip), vehicle: carboxymethylcellulose (CMC)
[15] = dose: 100.0 mg/kg/injection, schedule: Q04DX003 (ip), vehicle: Klucel (hydroxypropylcellulose) (HPC)
[16] = dose: 200.0 mg/kg/injection, schedule: Q04DX003 (ip), vehicle: Klucel (hydroxypropylcellulose) (HPC)
[17] = dose: 400.0 mg/kg/injection, schedule: Q04DX003 (ip), vehicle: Klucel (hydroxypropylcellulose) (HPC)
[18] = dose: 100.0 mg/kg/injection, schedule: Q01DX001 (ip), vehicle: saline
[19] = dose: 200.0 mg/kg/injection, schedule: Q01DX001 (ip), vehicle: saline
[20] = dose: 400.0 mg/kg/injection, schedule: Q01DX001 (ip), vehicle: saline
[21] = dose: 100.0 mg/kg/injection, schedule: Q01DX009 (ip), vehicle: Klucel (hydroxypropylcellulose) (HPC)
[22] = dose: 200.0 mg/kg/injection, schedule: Q01DX009 (ip), vehicle: Klucel (hydroxypropylcellulose) (HPC)
[23] = dose: 400.0 mg/kg/injection, schedule: Q01DX009 (ip), vehicle: Klucel (hydroxypropylcellulose) (HPC)
[24] = dose: 100.0 mg/kg/injection, schedule: Q01DX001 (ip), vehicle: Klucel (hydroxypropylcellulose) (HPC)
[25] = dose: 200.0 mg/kg/injection, schedule: Q01DX001 (ip), vehicle: Klucel (hydroxypropylcellulose) (HPC)

Measured: T/C

CCCCCCC#CC(=O)OCCCC
inactive: [1] 93 % of control | [2] 93 % of control | [3] 90 % of control

CNC(=O)Oc1ccc(C2CCCCC2)cc1
inactive: [4] 99 % of control | [5] 93 % of control and 103 % of control | [6] 97 % of control | dose: 100.0 mg/kg/injection, schedule: Q04DX002 (ip), vehicle: carboxymethylcellulose (CMC) 95 % of control and 101 % of control | [7] 94 % of control | [8] 90 % of control | [9] 93 % of control and 95 % of control | [10] 97 % of control | dose: 200.0 mg/kg/injection, schedule: Q04DX002 (ip), vehicle: carboxymethylcellulose (CMC) 101 % of control and 108 % of control | [11] 94 % of control | [12] 92 % of control | dose: 400.0 mg/kg/injection, schedule: Q01DX009 (ip), vehicle: carboxymethylcellulose (CMC) 98 % of control and 100 % of control | [13] 100 % of control | dose: 400.0 mg/kg/injection, schedule: Q04DX002 (ip), vehicle: carboxymethylcellulose (CMC) 95 % of control and 101 % of control | [14] 100 % of control

OCC1OC(Sc2ccccc2)C(O)C(O)C1O (centres undefined)
inactive: [15] 111 % of control | [16] 105 % of control | [17] 111 % of control

CC1C(C(N)=O)C(=O)OC1(C)C (centres undefined)
inactive: [18] 89 % of control | [19] 104 % of control | [20] 98 % of control

COc1cc([N+](=O)[O-])ccc1NC(=O)Oc1cc(C)ccc1C(C)C
inactive: [21] 103 % of control | [22] 104 % of control | [23] 104 % of control

CC1(C)CCc2c(cc(OCc3ccccc3)c(-c3c(OCc4ccccc4)cc4c(c3O)CCC(C)(C)O4)c2O)O1
inactive: [15] 94 % of control | [16] 93 % of control | [17] 94 % of control

Cc1ccc(S(=O)(=O)N(C)c2cc(Cl)c(I)c(Cl)c2)cc1
inactive: [21] 98 % of control | [22] 94 % of control | [23] 96 % of control

O=C1CCCC/C1=C\c1cccc2ccccc12
inactive: [1] 103 % of control | [2] 96 % of control | [3] 88 % of control

CC(C)=NNC(=O)Nc1ccc(C)c(Cl)c1
inactive: dose: 50.0 mg/kg/injection, schedule: Q01DX001 (ip), vehicle: Klucel (hydroxypropylcellulose) (HPC) 90 % of control | [24] 103 % of control and 90 % of control | [21] 102 % of control | [6] 101 % of control and 86 % of control | [25] 92 % of control | [22] 93 % of control | [10] 98 % of control and 100 % of control | dose: 400.0 mg/kg/injection, schedule: Q01DX001 (ip), vehicle: Klucel (hydroxypropylcellulose) (HPC) 87 % of control | [23] 86 % of control | [13] 95 % of control and 89 % of control

CCOC(=O)c1ccc2c3c(ccc(C(=O)OCC)c13)C=C2
inactive: [18] 88 % of control | [19] 96 % of control | [20] 100 % of control

CC(C)CC(NC(=O)OC(C)(C)C)C(=O)O (centres undefined)
inactive: dose: 100.0 mg/kg/injection, schedule: Q01DX001 (ip), vehicle: other 104 % of control | dose: 200.0 mg/kg/injection, schedule: Q01DX001 (ip), vehicle: other 93 % of control | dose: 400.0 mg/kg/injection, schedule: Q01DX001 (ip), vehicle: other 98 % of control

c1ccc2cc(B(c3cccc4ccccc34)c3cccc4ccccc34)ccc2c1
inactive: dose: 12.5 mg/kg/injection, schedule: Q04DX002 (ip), vehicle: saline with Tween-80 102 % of control | dose: 25.0 mg/kg/injection, schedule: Q04DX002 (ip), vehicle: saline with Tween-80 94 % of control | dose: 50.0 mg/kg/injection, schedule: Q04DX002 (ip), vehicle: saline with Tween-80 105 % of control

ClC(Cl)(Cl)c1cccc(C(Cl)(Cl)Cl)c1
inactive: [21] 121 % of control | [15] 105 % of control | [22] 101 % of control | [16] 95 % of control | [17] 95 % of control

CC(=C(C#N)C#N)c1csc2ccccc12
inactive: [4] 97 % of control | [8] 87 % of control | [12] 92 % of control

CCCCCCCCCCCCCCCCCC(=O)OCCCCCCC
inactive: [21] 102 % of control | [22] 102 % of control | [23] 112 % of control

O=C(Nc1cccc(Cl)c1)C(Br)C(Br)c1ccccc1 (centres undefined)
inactive: [21] 102 % of control | [22] 103 % of control | [23] 100 % of control

Cc1ccc2c[c]1[Hg][CH2]COS2(=O)=O
inactive: dose: 3.12 mg/kg/injection, schedule: Q04DX002 (ip), vehicle: Klucel (hydroxypropylcellulose) (HPC) 93 % of control | dose: 6.25 mg/kg/injection, schedule: Q04DX002 (ip), vehicle: Klucel (hydroxypropylcellulose) (HPC) 101 % of control | dose: 12.5 mg/kg/injection, schedule: Q04DX002 (ip), vehicle: Klucel (hydroxypropylcellulose) (HPC) 102 % of control and 90 % of control

CC[Si](C)(C)c1ccc(CCN2CC2)s1
inactive: [4] 113 % of control

COc1ccc2c(c1C)CCC1(CO)C(C(C)=O)=CCC21 (centres undefined)
inactive: [21] 105 % of control | [15] 92 % of control | [22] 110 % of control | [16] 97 % of control | [23] 100 % of control | [17] 102 % of control

CCCCCCCCCCCCCCCCCCOC(=O)C(C(C)=O)C(c1cccc([N+](=O)[O-])c1)C(C(C)=O)C(=O)O (centres undefined)
inactive: dose: 25.6 mg/kg/injection, schedule: Q04DX002 (ip), vehicle: saline with Tween-80 87 % of control | dose: 64.0 mg/kg/injection, schedule: Q04DX002 (ip), vehicle: saline with Tween-80 95 % of control | dose: 100.0 mg/kg/injection, schedule: Q04DX003 (ip), vehicle: saline with Tween-80 90 % of control | dose: 160.0 mg/kg/injection, schedule: Q04DX002 (ip), vehicle: saline with Tween-80 95 % of control | [3] 91 % of control | dose: 400.0 mg/kg/injection, schedule: Q04DX003 (ip), vehicle: saline with Tween-80 92 % of control

C/C(=N/NC(N)=S)c1ccc[nH]1
inactive: [24] 108 % of control | [25] 93 % of control

CCCCCCCCCCCCCC(=O)N(CC)CC
inactive: [4] 104 % of control | [5] 95 % of control and 100 % of control | [7] 98 % of control | [8] 94 % of control | [9] 101 % of control and 107 % of control | [11] 92 % of control | [12] 96 % of control | [14] 103 % of control

CCC(C)N(C(C)=O)C(C)CC (centres undefined)
inactive: dose: 25.0 mg/kg/injection, schedule: Q01DX001 (ip), vehicle: saline 107 % of control | dose: 50.0 mg/kg/injection, schedule: Q01DX001 (ip), vehicle: saline 97 % of control | [18] 100 % of control

C/C(=C/c1ccc([N+](=O)[O-])cc1)C(=O)O
inactive: [21] 96 % of control | [22] 115 % of control | [23] 107 % of control

NCC(O)C(F)(F)F (centres undefined)
inactive: [4] 109 % of control | [8] 97 % of control | [12] 118 % of control
